Columns and labels:
Type in all cases: in vivo
rats mâles = assay: Diuretic action with water overload in the rat (modified Lipschitz technique, oral); settings: for K = nbre de meq/L pour 100 g d'animal / dV = pourcentage du volume d'urine émise par rapport au lot témoin et ramené à 100 g de poids corporel / Na = nbre de meq/L pour 100 g d'animal: rat, oral, surcharge hydrique; for K = nbre de meq/L pour 100 g d'animal / Na = nbre de meq/L pour 100 g d'animal: 6 h urine; for dV = pourcentage du volume d'urine émise par rapport au lot témoin et ramené à 100 g de poids corporel: 6 h; for diurèse: summary in words of tableaux I à III
From the text: (§1) L'étude de l'activité diurétique a été effectuée comme suit : • l'expérience a été réalisée en utilisant la technique de LIPSCHITZ & Coll. (J. Pharm. Exp. Ther. 1943, 79, p. 97) modifiée pour la circonstance.
(§2) Des lots de 6 rats mâles, pesant environ 150 g, mis à jeun et privés de boisson la veille de l'essai, ont été placés par deux dans des cages à métabolisme pour une durée de 6 heures.
Les produits à essayer ont été administrés par voie orale, à la sonde, en même temps qu'une surcharge hydrique (eau du robinet à 37 °C), à raison de 5 ml pour 100 g de poids corporel.
(§3) Les volumes urinaires ont été recueillis et mesurés toutes les heures, et la quantité d'urine excrétée est donnée en ml par heure et par rat.
(§4) Les dosages du chlore, du sodium et du potassium sont effectués sur les prélèvements de 6 heures et sont exprimés en Meq par litre d'urine et par 100 g de rat.
(§5) A partir de ces chiffres et par rapport aux témoins, des pourcentages d'augmentation ou de diminution de la diurèse ont pu être calculés.
L'excrétion urinaire est donnée par le rapport : [formula]
L'activité diurétique est obtenue en faisant le rapport : • E.U. traités • E.U. témoins
Dans le tableau I figure l'action diurétique avec surcharge hydrique pour les composés A, B et C, et pour le furosémide et l'hydrochlorothiazide.

RAT = assay: Diuretic action with water-and-sodium overload in the rat; settings: for fuite de potassium: rat
From the text: as §1, §2, §3, §4, §5
Dans le tableau II figure l'action diurétique avec surcharge hydrosodée pour le composé A et le furosémide.

chien Beagle = assay: Diuresis in the Beagle dog after injection, urine output over one hour; settings: for Emission d'urine en ml TOTAL: TOTAL (60 mn)
[1] = 2 mg/kg, une heure, versus témoin

NS(=O)(=O)c1cc2c(=O)n(N3CCCCC3)c(=O)[nH]c2cc1Cl [Composé C, Chloro-7 pipéridino-3 dioxo-2,4 (1H,3H) sulfonamido-6 quinazoline]
K = nbre de meq/L pour 100 g d'animal (rats mâles; dose 0,1 mg/kg): +15 meq/L pour 100 g d'animal | dV = pourcentage du volume d'urine émise par rapport au lot témoin et ramené à 100 g de poids corporel (rats mâles; dose 1 mg/kg): +15% | K = nbre de meq/L pour 100 g d'animal (rats mâles; dose 1 mg/kg): +17 meq/L pour 100 g d'animal | Na = nbre de meq/L pour 100 g d'animal (rats mâles; dose 1 mg/kg): +141 meq/L pour 100 g d'animal | dV = pourcentage du volume d'urine émise par rapport au lot témoin et ramené à 100 g de poids corporel (rats mâles; dose 10 mg/kg): +35% | K = nbre de meq/L pour 100 g d'animal (rats mâles; dose 10 mg/kg): +47 meq/L pour 100 g d'animal | Na = nbre de meq/L pour 100 g d'animal (rats mâles; dose 10 mg/kg): +513 meq/L pour 100 g d'animal | dV = pourcentage du volume d'urine émise par rapport au lot témoin et ramené à 100 g de poids corporel (rats mâles; dose 25 mg/kg): +31% | K = nbre de meq/L pour 100 g d'animal (rats mâles; dose 25 mg/kg): +42 meq/L pour 100 g d'animal | Na = nbre de meq/L pour 100 g d'animal (rats mâles; dose 25 mg/kg): +583 meq/L pour 100 g d'animal | dV = pourcentage du volume d'urine émise par rapport au lot témoin et ramené à 100 g de poids corporel (rats mâles; dose 50 mg/kg): +18% | K = nbre de meq/L pour 100 g d'animal (rats mâles; dose 50 mg/kg): +57 meq/L pour 100 g d'animal | Na = nbre de meq/L pour 100 g d'animal (rats mâles; dose 50 mg/kg): +531 meq/L pour 100 g d'animal | diurèse (rats mâles): augmentent la diurèse

CCN(CC)n1c(=O)[nH]c2cc(Cl)c(S(N)(=O)=O)cc2c1=O [Composé B, Chloro-7 diéthylamino-3 dioxo-2,4 (1H,3H) sulfonamido-6 quinazoline]
K = nbre de meq/L pour 100 g d'animal (rats mâles; dose 1 mg/kg): +15 meq/L pour 100 g d'animal | Na = nbre de meq/L pour 100 g d'animal (rats mâles; dose 1 mg/kg): +160 meq/L pour 100 g d'animal | dV = pourcentage du volume d'urine émise par rapport au lot témoin et ramené à 100 g de poids corporel (rats mâles; dose 10 mg/kg): +30% | K = nbre de meq/L pour 100 g d'animal (rats mâles; dose 10 mg/kg): +35 meq/L pour 100 g d'animal | Na = nbre de meq/L pour 100 g d'animal (rats mâles; dose 10 mg/kg): +582 meq/L pour 100 g d'animal | dV = pourcentage du volume d'urine émise par rapport au lot témoin et ramené à 100 g de poids corporel (rats mâles; dose 25 mg/kg): +35% | K = nbre de meq/L pour 100 g d'animal (rats mâles; dose 25 mg/kg): +33 meq/L pour 100 g d'animal | Na = nbre de meq/L pour 100 g d'animal (rats mâles; dose 25 mg/kg): +671 meq/L pour 100 g d'animal | dV = pourcentage du volume d'urine émise par rapport au lot témoin et ramené à 100 g de poids corporel (rats mâles; dose 50 mg/kg): +31% | K = nbre de meq/L pour 100 g d'animal (rats mâles; dose 50 mg/kg): +21 meq/L pour 100 g d'animal | Na = nbre de meq/L pour 100 g d'animal (rats mâles; dose 50 mg/kg): +550 meq/L pour 100 g d'animal | diurèse (rats mâles): augmentent la diurèse

NS(=O)(=O)c1cc(C(=O)O)c(NCc2ccco2)cc1Cl [Furosémide, acide chloro-4 furfurylamino-2 sulfamoyl-5 benzoïque, reference compound]
K = nbre de meq/L pour 100 g d'animal (rats mâles; dose 10 mg/kg): -19 meq/L pour 100 g d'animal | dV = pourcentage du volume d'urine émise par rapport au lot témoin et ramené à 100 g de poids corporel (rats mâles; dose 25 mg/kg): +18% | dV = pourcentage du volume d'urine émise par rapport au lot témoin et ramené à 100 g de poids corporel (rats mâles; dose 50 mg/kg): +76% | K = nbre de meq/L pour 100 g d'animal (rats mâles; dose 50 mg/kg): +84 meq/L pour 100 g d'animal | Na = nbre de meq/L pour 100 g d'animal (rats mâles; dose 50 mg/kg): +639 meq/L pour 100 g d'animal | diurèse (rats mâles): augmentent la diurèse | fuite de potassium (RAT; dose 25 mg/kg (doses équivalentes)): 30,3%

CN(C)n1c(=O)[nH]c2cc(Cl)c(S(N)(=O)=O)cc2c1=O [Composé A, Chloro-7 diméthylamino-3 dioxo-2,4 (1H,3H) sulfonamido-6 quinazoline]
K = nbre de meq/L pour 100 g d'animal (rats mâles; dose 0,1 mg/kg): +19 meq/L pour 100 g d'animal | K = nbre de meq/L pour 100 g d'animal (rats mâles; dose 1 mg/kg): +18 meq/L pour 100 g d'animal | Na = nbre de meq/L pour 100 g d'animal (rats mâles; dose 1 mg/kg): +139,4 meq/L pour 100 g d'animal | dV = pourcentage du volume d'urine émise par rapport au lot témoin et ramené à 100 g de poids corporel (rats mâles; dose 10 mg/kg): +38,3% | K = nbre de meq/L pour 100 g d'animal (rats mâles; dose 10 mg/kg): +71 meq/L pour 100 g d'animal | Na = nbre de meq/L pour 100 g d'animal (rats mâles; dose 10 mg/kg): +551 meq/L pour 100 g d'animal | dV = pourcentage du volume d'urine émise par rapport au lot témoin et ramené à 100 g de poids corporel (rats mâles; dose 25 mg/kg): +39,7% | K = nbre de meq/L pour 100 g d'animal (rats mâles; dose 25 mg/kg): +67 meq/L pour 100 g d'animal | Na = nbre de meq/L pour 100 g d'animal (rats mâles; dose 25 mg/kg): +672 meq/L pour 100 g d'animal | dV = pourcentage du volume d'urine émise par rapport au lot témoin et ramené à 100 g de poids corporel (rats mâles; dose 50 mg/kg): +23,6% | K = nbre de meq/L pour 100 g d'animal (rats mâles; dose 50 mg/kg): +90 meq/L pour 100 g d'animal | Na = nbre de meq/L pour 100 g d'animal (rats mâles; dose 50 mg/kg): +606 meq/L pour 100 g d'animal | diurèse (rats mâles): augmentent la diurèse | action diurétique par rapport au furosémide (RAT; 10 mg/kg composé A sensiblement égale à 25 mg/kg de furosémide): sensiblement double | fuite de potassium (RAT; dose 10 mg/kg (doses équivalentes)): 19% | sodium éliminé dans le volume d'urine émis (chien Beagle; 2 mg/kg, une heure): ~10 fois celui du témoin | la diurèse est multipliée par (chien Beagle; [1]): 600/100 | taux de potassium multiplié par (chien Beagle; [1]): 1,2 | Emission d'urine en ml 0,5 mn (chien Beagle; Dose I.V. 1 mg/kg, 0,5 mn): 3,5 ml | Emission d'urine en ml 5-10 mn (chien Beagle; Dose I.V. 1 mg/kg): 5,0 ml | Emission d'urine en ml - 20 mn (chien Beagle; Dose I.V. 1 mg/kg): 8,5 ml | Emission d'urine en ml - 30 mn (chien Beagle; Dose I.V. 1 mg/kg): 7,0 ml | Emission d'urine en ml - 40 mn (chien Beagle; Dose I.V. 1 mg/kg): 9,0 ml | Emission d'urine en ml - 50 mn (chien Beagle; Dose I.V. 1 mg/kg): 8,0 ml | Emission d'urine en ml - 60mn (chien Beagle; Dose I.V. 1 mg/kg): 9,0 ml | Emission d'urine en ml TOTAL (chien Beagle; Dose I.V. 1 mg/kg): 50,0 ml | Emission d'urine en ml 0,5 mn (chien Beagle; Dose I.V. 2 mg/kg, 0,5 mn): 8,0 ml | Emission d'urine en ml 5-10 mn (chien Beagle; Dose I.V. 2 mg/kg): 14,5 ml | Emission d'urine en ml - 20 mn (chien Beagle; Dose I.V. 2 mg/kg): 20,5 ml | Emission d'urine en ml - 30 mn (chien Beagle; Dose I.V. 2 mg/kg): 18,5 ml | Emission d'urine en ml - 40 mn (chien Beagle; Dose I.V. 2 mg/kg): 15,5 ml | Emission d'urine en ml - 50 mn (chien Beagle; Dose I.V. 2 mg/kg): 11,5 ml | Emission d'urine en ml - 60mn (chien Beagle; Dose I.V. 2 mg/kg): 8,5 ml | Emission d'urine en ml TOTAL (chien Beagle; Dose I.V. 2 mg/kg): 97,0 ml | Emission d'urine en ml 0,5 mn (chien Beagle; Dose I.V. 5 mg/kg, 0,5 mn): 9,5 ml | Emission d'urine en ml 5-10 mn (chien Beagle; Dose I.V. 5 mg/kg): 10,5 ml | Emission d'urine en ml - 20 mn (chien Beagle; Dose I.V. 5 mg/kg): 10,0 ml | Emission d'urine en ml - 30 mn (chien Beagle; Dose I.V. 5 mg/kg): 8,0 ml | Emission d'urine en ml - 40 mn (chien Beagle; Dose I.V. 5 mg/kg): 9,0 ml | Emission d'urine en ml - 50 mn (chien Beagle; Dose I.V. 5 mg/kg): 5,5 ml | Emission d'urine en ml - 60mn (chien Beagle; Dose I.V. 5 mg/kg): 7,0 ml | Emission d'urine en ml TOTAL (chien Beagle; Dose I.V. 5 mg/kg): 59,5 ml | Emission d'urine en ml 0,5 mn (chien Beagle; Dose I.V. 10 mg/kg, 0,5 mn): 4,0 ml | Emission d'urine en ml 5-10 mn (chien Beagle; Dose I.V. 10 mg/kg): 8,0 ml | Emission d'urine en ml - 20 mn (chien Beagle; Dose I.V. 10 mg/kg): 9,0 ml | Emission d'urine en ml - 30 mn (chien Beagle; Dose I.V. 10 mg/kg): 10,0 ml | Emission d'urine en ml - 40 mn (chien Beagle; Dose I.V. 10 mg/kg): 4,0 ml | Emission d'urine en ml - 50 mn (chien Beagle; Dose I.V. 10 mg/kg): 8,0 ml | Emission d'urine en ml - 60mn (chien Beagle; Dose I.V. 10 mg/kg): 7,5 ml | Emission d'urine en ml TOTAL (chien Beagle; Dose I.V. 10 mg/kg): 50,5 ml | dose avec laquelle la diurèse maximale au bout d'une heure est atteinte (chien Beagle; voie I.P., une heure): 2 mg/kg

NS(=O)(=O)c1cc2c(cc1Cl)NCNS2(=O)=O [Hydrochloro-thiazide, dioxo-1,1 chloro-6 dihydro-3,4 sulfamoyl-7 (1,2,4)H benzothiadiazine, reference compound]
Na = nbre de meq/L pour 100 g d'animal (rats mâles; dose 0,1 mg/kg): +6,9 meq/L pour 100 g d'animal | dV = pourcentage du volume d'urine émise par rapport au lot témoin et ramené à 100 g de poids corporel (rats mâles; dose 1 mg/kg): +38% | K = nbre de meq/L pour 100 g d'animal (rats mâles; dose 1 mg/kg): +29 meq/L pour 100 g d'animal | Na = nbre de meq/L pour 100 g d'animal (rats mâles; dose 1 mg/kg): +374 meq/L pour 100 g d'animal | dV = pourcentage du volume d'urine émise par rapport au lot témoin et ramené à 100 g de poids corporel (rats mâles; dose 10 mg/kg): +40% | K = nbre de meq/L pour 100 g d'animal (rats mâles; dose 10 mg/kg): +22 meq/L pour 100 g d'animal | Na = nbre de meq/L pour 100 g d'animal (rats mâles; dose 10 mg/kg): +430 meq/L pour 100 g d'animal | dV = pourcentage du volume d'urine émise par rapport au lot témoin et ramené à 100 g de poids corporel (rats mâles; dose 25 mg/kg): +48% | K = nbre de meq/L pour 100 g d'animal (rats mâles; dose 25 mg/kg): +44 meq/L pour 100 g d'animal | Na = nbre de meq/L pour 100 g d'animal (rats mâles; dose 25 mg/kg): +504 meq/L pour 100 g d'animal | diurèse (rats mâles): augmentent la diurèse
